According to ChEMBL document CHEMBL5042504 (J Med Chem, 2022):
Active and inactive are the calls of the source. The rule behind the calls is not given here.

Key:
[1] = target: Histone deacetylase 1 (Homo sapiens, UniProt Q13547); test: Inhibition of human recombinant HDAC1 using Boc-Lys(acetyl)-AMC substrate incubated for 2 hrs by fluorescence based assay
[2] = target: Histone deacetylase 3 (Homo sapiens, UniProt O15379); test: Inhibition of human recombinant HDAC3 using Boc-Lys(acetyl)-AMC substrate incubated for 2 hrs by fluorescence based assay
Sequence of Histone deacetylase 3 (O15379 whole entry): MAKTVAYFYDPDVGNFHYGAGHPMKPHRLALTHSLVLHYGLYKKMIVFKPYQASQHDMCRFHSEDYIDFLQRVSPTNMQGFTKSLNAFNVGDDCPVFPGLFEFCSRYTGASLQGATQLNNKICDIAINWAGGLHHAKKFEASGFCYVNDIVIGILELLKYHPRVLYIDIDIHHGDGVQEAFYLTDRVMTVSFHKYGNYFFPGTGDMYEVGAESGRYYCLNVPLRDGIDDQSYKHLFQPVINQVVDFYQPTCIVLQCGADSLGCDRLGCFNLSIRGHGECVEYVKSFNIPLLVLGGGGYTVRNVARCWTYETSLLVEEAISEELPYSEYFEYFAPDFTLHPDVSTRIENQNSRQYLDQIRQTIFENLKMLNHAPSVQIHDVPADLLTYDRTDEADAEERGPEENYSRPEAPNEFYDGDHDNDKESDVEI

[3] = target: Histone deacetylase 2 (Homo sapiens, UniProt Q92769); test: Inhibition of human recombinant HDAC2 using Boc-Lys(acetyl)-AMC substrate incubated for 2 hrs by fluorescence based assay
Sequence of Histone deacetylase 2 (Q92769 whole entry): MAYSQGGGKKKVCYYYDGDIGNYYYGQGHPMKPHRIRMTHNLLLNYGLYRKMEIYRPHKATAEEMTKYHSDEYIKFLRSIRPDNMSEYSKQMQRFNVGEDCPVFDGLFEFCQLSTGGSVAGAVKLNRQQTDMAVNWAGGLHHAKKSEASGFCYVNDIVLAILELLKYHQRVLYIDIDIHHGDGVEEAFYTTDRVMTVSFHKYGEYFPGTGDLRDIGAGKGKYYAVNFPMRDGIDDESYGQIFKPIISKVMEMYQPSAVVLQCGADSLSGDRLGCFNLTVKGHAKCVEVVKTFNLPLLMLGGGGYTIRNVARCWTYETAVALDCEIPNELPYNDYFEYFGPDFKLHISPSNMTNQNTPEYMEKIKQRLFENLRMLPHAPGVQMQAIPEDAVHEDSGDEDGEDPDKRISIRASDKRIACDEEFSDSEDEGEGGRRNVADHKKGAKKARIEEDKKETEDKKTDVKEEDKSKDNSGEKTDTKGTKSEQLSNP

[4] = target: T1, Protein deacetylase HDAC6 (Homo sapiens, UniProt Q9UBN7); test: Inhibition of human recombinant HDAC6 using Boc-Lys(acetyl)-AMC substrate incubated for 2 hrs by fluorescence based assay
T1 sequence (Q9UBN7 whole entry): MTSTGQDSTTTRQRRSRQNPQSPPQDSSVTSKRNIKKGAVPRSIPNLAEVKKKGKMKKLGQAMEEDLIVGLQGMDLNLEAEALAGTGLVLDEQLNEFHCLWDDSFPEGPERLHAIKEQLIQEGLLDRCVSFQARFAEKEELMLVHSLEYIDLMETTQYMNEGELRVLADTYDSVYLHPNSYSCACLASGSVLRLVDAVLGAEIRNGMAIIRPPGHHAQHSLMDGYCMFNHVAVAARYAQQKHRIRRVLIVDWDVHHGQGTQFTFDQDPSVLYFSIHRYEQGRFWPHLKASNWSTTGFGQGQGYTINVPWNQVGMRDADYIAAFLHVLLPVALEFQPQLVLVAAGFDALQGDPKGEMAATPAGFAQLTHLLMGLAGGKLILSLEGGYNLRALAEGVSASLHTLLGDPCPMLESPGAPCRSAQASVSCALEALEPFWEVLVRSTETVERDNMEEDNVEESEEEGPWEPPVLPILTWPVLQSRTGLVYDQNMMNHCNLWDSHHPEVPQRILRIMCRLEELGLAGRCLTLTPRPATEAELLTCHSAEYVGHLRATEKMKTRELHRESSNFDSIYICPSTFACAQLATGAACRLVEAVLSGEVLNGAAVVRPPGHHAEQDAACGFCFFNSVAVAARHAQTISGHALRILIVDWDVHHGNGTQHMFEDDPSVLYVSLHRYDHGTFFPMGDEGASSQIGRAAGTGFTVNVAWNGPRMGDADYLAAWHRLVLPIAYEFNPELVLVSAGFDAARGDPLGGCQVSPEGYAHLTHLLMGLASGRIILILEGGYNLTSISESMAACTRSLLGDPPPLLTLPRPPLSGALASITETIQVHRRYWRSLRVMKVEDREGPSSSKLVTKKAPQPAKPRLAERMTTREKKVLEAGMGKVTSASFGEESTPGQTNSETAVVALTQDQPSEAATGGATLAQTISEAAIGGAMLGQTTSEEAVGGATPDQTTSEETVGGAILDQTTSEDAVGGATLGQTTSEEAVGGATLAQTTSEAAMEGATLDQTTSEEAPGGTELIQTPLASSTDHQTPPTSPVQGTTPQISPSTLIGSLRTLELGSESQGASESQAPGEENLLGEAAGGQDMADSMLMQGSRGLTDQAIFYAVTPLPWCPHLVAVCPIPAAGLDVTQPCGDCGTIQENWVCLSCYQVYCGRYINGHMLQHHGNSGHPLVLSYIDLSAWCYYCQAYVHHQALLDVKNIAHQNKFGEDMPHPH

[5] = system: MV4-11; test: cells; conditions: Homo sapiens, MV4-11, 48 h
Description: Antiproliferative activity against human MV4-11 AML cells assessed as cell viability measured after 48 hrs by multiplate reader method

[6] = Drug distribution in BALB/c mouse lung measured at 4 mg/kg, po or ip after 2 to 8 hrs after 0.5 hrs; assay type: ADME, organism-based; conditions: in vivo, time 2-8 hrs
[7] = Drug distribution in BALB/c mouse kidney measured at 4 mg/kg, po or ip after 2 to 8 hrs after 0.5 hrs; assay type: ADME, organism-based; conditions: in vivo, time 2-8 hrs
[8] = Drug distribution in BALB/c mouse brain measured at 4 mg/kg, po or ip after 0.5 hrs after 0.5 hrs; assay type: ADME, organism-based; conditions: in vivo
[9] = Plasma concentration in BALB/c mouse xenografted with human AML MV4-11 cells at 4 mg/kg, ip; assay type: ADME, organism-based; conditions: in vivo
[10] = Drug distribution in BALB/c mouse spleen measured at 4 mg/kg, po or ip after 0.5 hrs; assay type: ADME, organism-based; conditions: in vivo
[11] = Drug distribution in BALB/c mouse gut measured at 4 mg/kg, po or ip after 2 to 8 hrs after 0.5 hrs; assay type: ADME, organism-based; conditions: in vivo, time 2-8 hrs
[12] = Drug distribution in tumor of BALB/c mouse xenografted with human MV4-11 cells assessed as measured after 0.5 hrs; assay type: ADME; conditions: read-out: Ct
[13] = Drug distribution in BALB/c mouse kidney measured at 4 mg/kg, po or ip after 0.5 hrs after 0.5 hrs; assay type: ADME, organism-based; conditions: in vivo
[14] = Drug distribution in BALB/c mouse spleen measured at 4 mg/kg, po or ip after 2 to 8 hrs after 0.5 hrs; assay type: ADME, organism-based; conditions: in vivo, time 2-8 hrs
[15] = Drug distribution in BALB/c mouse liver measured at 4 mg/kg, po or ip after 0.5 hrs after 0.5 hrs; assay type: ADME, organism-based; conditions: in vivo
[16] = Drug uptake in BALB/c mouse xenografted with human AML MV4-11 cells assessed as tumor tissue at 4mg/kg, po measured after 0.5 to 6 hrs by LC-MS/MS; assay type: ADME, organism-based; conditions: in vivo, time 0.5-6 hrs
[17] = system: MV4-11; test: Antitumor activity against human MV4-11 cells xenografted in BALB/c mouse assessed as tumor growth inhibition at 4 mg/kg, po administered for 24 days; assay type: functional, organism-based; conditions: time 24.0 day
[18] = Drug distribution in BALB/c mouse heart measured at 4 mg/kg, po or ip after 2 to 8 hrs after 0.5 hrs; assay type: ADME, organism-based; conditions: in vivo, time 2-8 hrs
[19] = Drug uptake in BALB/c mouse xenografted with human AML MV4-11 cells assessed as tumor tissue at 4 mg/kg ip measured after 0.5 to 6 hrs by LC-MS/MS; assay type: ADME, organism-based; conditions: in vivo, time 0.5-6 hrs
[20] = system: MV4-11; test: Antitumor activity against human MV4-11 cells xenografted in BALB/c mouse assessed as tumor growth inhibition at 4 mg/kg, ip administered for 24 days; assay type: functional, organism-based; conditions: time 24.0 day
[21] = Drug distribution in BALB/c mouse liver measured at 4 mg/kg, po or ip after 2 to 8 hrs after 0.5 hrs; assay type: ADME, organism-based; conditions: in vivo, time 2-8 hrs
[22] = Drug distribution in BALB/c mouse heart measured at 4 mg/kg, po or ip after 0.5 hrs after 0.5 hrs; assay type: ADME, organism-based; conditions: in vivo
[23] = Drug distribution in tumor of BALB/c mouse xenografted with human MV4-11 cells assessed as measured after 2 hrs; assay type: ADME; conditions: read-out: Ct
[24] = Drug distribution in BALB/c mouse brain measured at 4 mg/kg, po or ip after 2 to 8 hrs after 0.5 hrs; assay type: ADME, organism-based; conditions: in vivo, time 2-8 hrs
[25] = Drug distribution in tumor of BALB/c mouse xenografted with human MV4-11 cells assessed as measured after 8 hrs; assay type: ADME; conditions: read-out: Ct
[26] = Drug distribution in BALB/c mouse gut measured at 4 mg/kg, po or ip after 0.5 hrs after 0.5 hrs; assay type: ADME, organism-based; conditions: in vivo
[27] = Plasma concentration in BALB/c mouse xenografted with human AML MV4-11 cells at 4 mg/kg, po; assay type: ADME, organism-based; conditions: in vivo
[28] = Drug distribution in BALB/c mouse lung measured at 4 mg/kg, po or ip after 0.5 hrs after 0.5 hrs; assay type: ADME, organism-based; conditions: in vivo
[29] = system: MV4-11; test: Antitumor activity against human MV4-11 cells xenografted in BALB/c mouse assessed as tumor growth inhibition at 2 to 4 mg/kg, po administered for 24 days; assay type: functional; conditions: dose 2-4 mg/kg, time 24.0 day

Sequence of Histone deacetylase 1 (Q13547 whole entry): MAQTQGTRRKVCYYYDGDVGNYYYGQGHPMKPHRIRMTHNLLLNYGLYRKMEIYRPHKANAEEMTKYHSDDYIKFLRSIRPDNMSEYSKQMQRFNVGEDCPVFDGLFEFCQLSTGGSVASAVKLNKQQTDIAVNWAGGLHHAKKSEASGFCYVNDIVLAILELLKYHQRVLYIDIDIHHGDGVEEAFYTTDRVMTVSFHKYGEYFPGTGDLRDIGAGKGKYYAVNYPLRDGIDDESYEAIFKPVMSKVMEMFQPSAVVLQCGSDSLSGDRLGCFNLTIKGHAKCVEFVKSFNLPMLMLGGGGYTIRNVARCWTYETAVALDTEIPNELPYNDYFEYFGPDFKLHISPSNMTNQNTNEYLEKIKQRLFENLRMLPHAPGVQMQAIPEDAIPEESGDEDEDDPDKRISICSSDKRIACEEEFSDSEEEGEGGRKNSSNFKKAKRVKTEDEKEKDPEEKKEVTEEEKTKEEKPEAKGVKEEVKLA

CCCNNC(=O)c1ccc(CNC(=O)c2cc3cc(Cl)ccc3[nH]2)cc1
IC50 [1]: 13.8 nM
IC50 [2]: 0.66 nM
IC50 [3]: 46.1 nM
IC50 [4]: > 10000 nM
IC50 [5]: 37.7 nM

CCCNNC(=O)c1ccc(CNC(=O)c2cc3ccccc3cn2)cc1
IC50 [1]: 8.8 nM
IC50 [2]: 1.48 nM
IC50 [3]: 30.9 nM
IC50 [4]: > 10000 nM
IC50 [5]: 45.9 nM

CCCNNC(=O)c1ccc(CNC(=O)c2cc3ccccc3o2)cc1
IC50 [1]: 3.52 nM
IC50 [2]: 0.38 nM
IC50 [3]: 15.1 nM
IC50 [4]: > 10000 nM

CCCNNC(=O)c1ccc(CNC(=O)c2cc3cc(Cl)ccc3o2)cc1
IC50 [1]: 8.91 nM
IC50 [2]: 0.62 nM
IC50 [3]: 28.1 nM
IC50 [4]: > 10000 nM
IC50 [5]: 248 nM

CCCNNC(=O)c1ccc(CNC(=O)c2ccc3cnccc3n2)cc1
IC50 [1]: 16.2 nM
IC50 [2]: 2.03 nM
IC50 [3]: 41.4 nM
IC50 [4]: > 10000 nM
IC50 [5]: 59.7 nM

Cc1[nH]c2ccccc2c1CCNCc1ccc(/C=C/C(=O)NO)cc1 [PANOBINOSTAT]
Drug uptake [6]: Active
Drug uptake [7]: Active
Drug uptake [8]: Active
Drug uptake [9]: Active
Drug uptake [10]: Active
Drug uptake [11]: Active
concentration at 0.5 h [12]: 82.4 ng/g
Drug uptake [13]: Active
Drug uptake [14]: Active
Drug uptake [15]: Active
Drug uptake [16]: Active
Activity [17]: Active
Drug uptake [18]: Active
Drug uptake [19]: Active
Activity [20]: Active
Drug uptake [21]: Active
Drug uptake [22]: Active
concentration at 2 h [23]: 151 ng/g
Drug uptake [24]: Active
concentration at 8 h [25]: 108 ng/g
Drug uptake [26]: Active
Drug uptake [27]: Active
Drug uptake [28]: Active
TGI [29]: inactive

CCCNNC(=O)c1ccc(CNC(=O)c2cc3cc(O)ccc3o2)cc1
IC50 [1]: 3.91 nM
IC50 [2]: 0.51 nM
IC50 [3]: 16.1 nM
IC50 [4]: > 10000 nM
IC50 [5]: 40 nM

CCCNNC(=O)c1ccc(CNC(=O)c2cc3cc(OC)ccc3[nH]2)cc1
IC50 [1]: 4.66 nM
IC50 [2]: 0.58 nM
IC50 [3]: 16.4 nM
IC50 [4]: > 10000 nM
IC50 [5]: 37.5 nM

CCCNNC(=O)c1ccc(CNC(=O)c2ccc3ccccc3n2)cc1
IC50 [1]: 10.7 nM
IC50 [2]: 0.9 nM
IC50 [3]: 57.3 nM
IC50 [4]: > 10000 nM
IC50 [5]: 57.8 nM

CCCNNC(=O)c1ccc(CNC(=O)c2cc3cc(Br)ccc3o2)cc1
IC50 [1]: 7.85 nM
IC50 [2]: 0.62 nM
IC50 [3]: 23.7 nM
IC50 [4]: > 10000 nM
IC50 [5]: 159 nM

CCCNNC(=O)c1ccc(CNC(=O)c2cc3cc(OC)ccc3o2)cc1
IC50 [1]: 7.4 nM
IC50 [2]: 0.28 nM
IC50 [3]: 26.1 nM
IC50 [4]: > 10000 nM
IC50 [5]: 52.1 nM

CCCNNC(=O)c1ccc(CNC(=O)c2cc3cc(Br)ccc3[nH]2)cc1
IC50 [1]: 58.3 nM
IC50 [2]: 1.31 nM
IC50 [3]: 186 nM
IC50 [4]: > 10000 nM
IC50 [5]: 66.5 nM
